In patent US12018001B2, “Pyrimidine cyclohexenyl glucocorticoid receptor modulators” (priority 2018, dated 2024) one finds Ki data, which are given here for 45 compounds.

The assay concerns the target T1, glucocorticoid receptor (Homo sapiens, UniProt P04150).
T1 construct: host or cells: HepG2
T1 sequence (P04150 1-777): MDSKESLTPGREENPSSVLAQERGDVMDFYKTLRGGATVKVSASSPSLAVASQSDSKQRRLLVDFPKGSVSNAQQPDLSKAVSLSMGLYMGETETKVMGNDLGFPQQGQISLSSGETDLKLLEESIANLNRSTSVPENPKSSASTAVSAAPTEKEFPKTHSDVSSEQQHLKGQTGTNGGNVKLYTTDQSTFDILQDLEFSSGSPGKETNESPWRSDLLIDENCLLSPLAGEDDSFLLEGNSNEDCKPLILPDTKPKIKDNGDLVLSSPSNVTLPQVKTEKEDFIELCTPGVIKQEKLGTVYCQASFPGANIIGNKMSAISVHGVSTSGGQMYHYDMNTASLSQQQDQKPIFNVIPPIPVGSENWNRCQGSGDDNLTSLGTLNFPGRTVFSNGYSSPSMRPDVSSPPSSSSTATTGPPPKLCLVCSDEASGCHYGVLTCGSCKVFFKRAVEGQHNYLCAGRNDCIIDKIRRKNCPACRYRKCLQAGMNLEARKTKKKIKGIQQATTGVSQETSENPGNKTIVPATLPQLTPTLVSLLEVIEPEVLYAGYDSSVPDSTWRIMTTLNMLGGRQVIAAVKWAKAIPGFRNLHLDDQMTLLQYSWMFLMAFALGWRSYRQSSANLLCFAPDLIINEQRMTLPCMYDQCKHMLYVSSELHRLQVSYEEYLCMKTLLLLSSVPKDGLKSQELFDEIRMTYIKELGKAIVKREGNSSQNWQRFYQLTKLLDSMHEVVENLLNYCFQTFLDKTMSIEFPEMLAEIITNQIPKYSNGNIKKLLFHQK
As to the kind of experiment: Hep G2 TAT assay: induction of TAT by dexamethasone in HepG2 cells. The assay is classed as cell-based. As to the method: Glucocorticoid mediated activation of TAT occurs by transactivation of glucocorticoid response elements in the TAT promoter by glucocorticoid receptor-agonist complex.
TAT activity was measured as outlined in the literature by A. Ali et al., J. Med. Chem., 2004, 47, 2441-2452.
HepG2 cells were cultured using MEME media supplemented with 10% (v/v) foetal bovine serum; 2 mM L-glutamine and 1% (v/v) NEAA at 37° C., 5%/95% (v/v) CO2/air. The HepG2 cells were counted and adjusted to yield a density of 0.125×10^6 cells/ml in RPMI 1640 without phenol red, 10% (v/v) charcoal stripped FBS, 2 mM L-glutamine and seeded at 25,000 cells/well in 200 μl into 96 well, sterile, tissue culture micro titre plates, and incubated at 37° C., 5% CO2 for 24 hours
Growth media was removed and replaced with assay media {RPMI 1640 without phenol red, 2 mM L-glutamine+10 μM forskolin}. […] Compounds were serially half log diluted in 100% (v/v) dimethylsulphoxide from a 10 mM stock.
HepG2 cells were then lysed with 30 μl of cell lysis buffer containing a protease inhibitor cocktail for 15 minutes at 4° C. 155 μl of substrate mixture was then added containing 5.4 mM Tyrosine sodium salt, 10.8 mM alpha ketoglutarate and 0.06 mM pyridoxal 5′ phosphate in 0.1 M potassium phosphate buffer (pH 7.4). After 2 hours incubation at 37° C. the reaction was terminated by the addition of 15 μl of 10 M aqueous potassium hydroxide solution, and the plates incubated for a further 30 minutes at 37° C. The TAT activity product was measured by absorbance at λ 340 nm.
[compound] and fitting the data to a 4 parameter logistic equation.
The term Ki denotes the dissociation constant of the complex between target and ligand, obtained from inhibition or displacement. Higher therefore signals a looser hold on the target. With `CN(C)c1ncc(C2=CCC(c3[nH]c(=O)[nH]c(=O)c3Cc3ccccc3)CC2)cn1` (stereo not drawn) [Example 55], the Ki was found to be 1480 nM. In the case of `CC(C)Oc1ccc(C2=CCC(c3[nH]c(=O)[nH]c(=O)c3Cc3ccccc3)CC2)c(Cl)c1` (stereo not drawn) [Example 52] it was 568 nM; in that of `CCn1nc(C(F)(F)F)cc1C1=CCC(c2[nH]c(=O)[nH]c(=O)c2Cc2ccccc2)CC1` (stereo not drawn) [Example 71], 148 nM. As for `Cc1ccccc1C1=CCC(c2[nH]c(=O)[nH]c(=O)c2Cc2ccccc2)CC1` (stereo not drawn) [Example 13], the affinity corresponds to a Ki of 83 nM. On to `N#Cc1cc(C(F)(F)F)ccc1C1=CCC(c2[nH]c(=O)[nH]c(=O)c2Cc2ccccc2)CC1` (stereo not drawn) [Example 38], for which the affinity corresponds to a Ki of 75 nM.

In turn, `CCOc1ccc(C2=CCC(c3[nH]c(=O)[nH]c(=O)c3Cc3ccccc3)CC2)c(F)c1F` (stereo not drawn) [Example 91] displayed a Ki of 247 nM. For `Cn1ncc2c(C3=CCC(c4[nH]c(=O)[nH]c(=O)c4Cc4ccccc4)CC3)cccc21` (stereo not drawn) [Example 61] the value was 485 nM; for `O=c1[nH]c(C2CC=C(c3ccc(Cl)cc3Cl)CC2)c(Cc2ccccc2)c(=O)[nH]1` (stereo not drawn) [Example 6], 65 nM. For `O=c1[nH]c(C2CC=C(c3ccc(C4CC4)cc3C(F)(F)F)CC2)c(Cc2ccccc2)c(=O)[nH]1` (stereo not drawn) [Example 112, 5-benzyl-6-(4′-cyclopropyl-2′-(trifluoromethyl)-2,3,4,5-tetrahydro-[1,1′-biphenyl]-4-yl)pyrimidine-2,4(1H,3H)-dione] the value was 333 nM. For `Cc1ccc(C2=CCC(c3[nH]c(=O)[nH]c(=O)c3Cc3ccccc3)CC2)c(N2CCCC2)n1` (stereo not drawn) [Example 50] the value was 14 nM; for `Cn1nccc1C1=CCC(c2[nH]c(=O)[nH]c(=O)c2Cc2ccccc2)CC1` (stereo not drawn) [Example 31], 120 nM. In turn, `C[C@@H]1CCCN(c2ncccc2C2=CCC(c3[nH]c(=O)[nH]c(=O)c3Cc3ccccc3)CC2)C1` (stereo partly drawn) [Example 47] yielded a Ki of 400 nM. This Ki is about 3.3-fold higher than that of the compound before. For `O=c1[nH]c(C2CC=C(c3ccccc3Cl)CC2)c(Cc2ccccc2)c(=O)[nH]1` (stereo not drawn) [Example 8] the value was 52 nM; for `CS(=O)(=O)c1ccc(C2=CCC(c3[nH]c(=O)[nH]c(=O)c3Cc3cccc(N4CCCC4)n3)CC2)c(F)c1` (stereo not drawn) [Example 117], 559 nM; for `O=c1[nH]c(C2CC=C(c3cccnc3C(F)(F)F)CC2)c(Cc2cccc(N3CCCC3)n2)c(=O)[nH]1` (stereo not drawn) [Example 51, 5-((6-(Pyrrolidin-1-yl)pyridin-2-yl)methyl)-6-(4-(2-(trifluoromethyl)pyridin-3-yl)cyclohex-3-en-1-yl)pyrimidine-2,4(1H,3H)-dione, formic acid], 400 nM. In the case of `CCOc1ccc(C2=CCC(c3[nH]c(=O)[nH]c(=O)c3Cc3ccccc3)CC2)c(F)c1` (stereo not drawn) [Example 78] it was 175 nM; in that of `Cc1c(F)cccc1C1=CCC(c2[nH]c(=O)[nH]c(=O)c2Cc2ccccc2)CC1` (stereo not drawn) [Example 24], 33 nM; in that of `CCOc1ccc(C2=CCC(c3[nH]c(=O)[nH]c(=O)c3Cc3ccccc3)CC2)c(C(F)(F)F)c1` (stereo not drawn) [Example 53], 51 nM.

Compound `O=c1[nH]c(C2CC=C(c3ccc(F)cc3)CC2)c(Cc2ccccc2)c(=O)[nH]1` (stereo not drawn) [Example 3] displayed a Ki of 460 nM.

In turn, `CC(C)Oc1ccc(C2=CCC(c3[nH]c(=O)[nH]c(=O)c3Cc3ccccc3)CC2)c(F)c1` (stereo not drawn) [Example 68] displayed a Ki of 497 nM. In turn, `O=c1[nH]c(C2CC=C(c3ccc(S(=O)(=O)N4CCCC4)cc3F)CC2)c(Cc2ccccc2)c(=O)[nH]1` (stereo not drawn) [Example 100] registered a Ki of 1600 nM. In the case of `CN(C)S(=O)(=O)c1ccc(C2=CCC(c3[nH]c(=O)[nH]c(=O)c3Cc3ccccc3)CC2)c(Cl)c1` (stereo not drawn) [Example 103] it was 258 nM. For `COc1cc(Cl)ccc1C1=CCC(c2[nH]c(=O)[nH]c(=O)c2Cc2ccccc2)CC1` (stereo not drawn) [Example 7] the value was 38 nM. For `CS(=O)(=O)c1ccc(C2=CCC(c3[nH]c(=O)[nH]c(=O)c3Cc3cccc(C(F)(F)F)c3)CC2)c(F)c1` (stereo not drawn) [Example 116] the value was 170 nM; for `Cc1cc(C2=CCC(c3[nH]c(=O)[nH]c(=O)c3Cc3ccccc3)CC2)n(C)n1` (stereo not drawn) [Example 63], 632 nM; for `Cn1ncc2cccc(C3=CCC(c4[nH]c(=O)[nH]c(=O)c4Cc4ccccc4)CC3)c21` (stereo not drawn) [Example 89], 433 nM. Compound `O=c1[nH]c(C2CC=C(c3ccc(F)cc3C(F)(F)F)CC2)c(Cc2ccccc2)c(=O)[nH]1` (stereo not drawn) [Example 34] yielded a Ki of 23 nM.

As for `N#Cc1ccc(Cl)c(C2=CCC(c3[nH]c(=O)[nH]c(=O)c3Cc3ccccc3)CC2)c1` (stereo not drawn) [Example 27], the Ki was found to be 210 nM. In the case of `O=c1[nH]c(C2CC=C(c3ccc(Cl)cc3C(F)(F)F)CC2)c(Cc2cccc(C(F)(F)F)c2)c(=O)[nH]1` (stereo not drawn) [Example 114, 6-(4′-chloro-2′-(trifluoromethyl)-2,3,4,5-tetrahydro-[1,1′-biphenyl]-4-yl)-5-(3-(trifluoromethyl)benzyl)pyrimidine-2,4(1H,3H)-dione] it was 121 nM; in that of `O=c1[nH]c(C2CC=C(c3cc(CO)ccc3Cl)CC2)c(Cc2ccccc2)c(=O)[nH]1` (stereo not drawn) [Example 28], 150 nM; in that of `O=c1[nH]c(C2CC=C(c3ccc(C(F)(F)F)cc3F)CC2)c(Cc2ccccc2)c(=O)[nH]1` (stereo not drawn) [Example 37], 140 nM. For `O=c1[nH]c(C2CC=C(c3ccc(OC(F)(F)F)cc3Cl)CC2)c(Cc2ccccc2)c(=O)[nH]1` (stereo not drawn) [Example 60] the value was 41 nM; for `COc1ccc(C2=CCC(c3[nH]c(=O)[nH]c(=O)c3Cc3ccccc3)CC2)c(Cl)c1` (stereo not drawn) [Example 29], 12 nM; for `O=c1[nH]c(C2CC=C(c3ccc(C4CC4)cc3F)CC2)c(Cc2ccccc2)c(=O)[nH]1` (stereo not drawn) [Example 111, 5-benzyl-6-(4′-cyclopropyl-2′-fluoro-2,3,4,5-tetrahydro-[1,1′-biphenyl]-4-yl)pyrimidine-2,4(1H,3H)-dione], 113 nM. In the case of `CS(=O)(=O)c1ccccc1C1=CCC(c2[nH]c(=O)[nH]c(=O)c2Cc2ccccc2)CC1` (stereo not drawn) [Example 15] it was 520 nM. In turn, `CN1CCN(C(=O)c2ccc(C3=CCC(c4[nH]c(=O)[nH]c(=O)c4Cc4ccccc4)CC3)c(Cl)c2)CC1` (stereo not drawn) [Example 41, 5-Benzyl-6-(2′-chloro-4′-(4-methylpiperazine-1-carbonyl)-2,3,4,5-tetrahydro-[1,1′-biphenyl]-4-yl)pyrimidine-2,4(1H,3H)-dione] had a Ki of 480 nM.

`O=C(c1ccc(C2=CCC(c3[nH]c(=O)[nH]c(=O)c3Cc3ccccc3)CC2)c(Cl)c1)N1CCCC1` (stereo not drawn) [Example 42, 5-Benzyl-6-(2′-chloro-4′-(pyrrolidine-1-carbonyl)-2,3,4,5-tetrahydro-[1,1′-biphenyl]-4-yl)pyrimidine-2,4(1H,3H)-dione] yielded a Ki of 33 nM. In turn, `O=c1[nH]c(C2CC=C(c3ccc(OC(F)(F)F)c(F)c3F)CC2)c(Cc2ccccc2)c(=O)[nH]1` (stereo not drawn) [Example 92] gave a Ki of 803 nM. For `Cc1ccncc1C1=CCC(c2[nH]c(=O)[nH]c(=O)c2Cc2ccccc2)CC1` (stereo not drawn) [Example 30] the value was 50 nM; for `O=c1[nH]c(C2CC=C(c3cccnc3N3CCC(F)(F)CC3)CC2)c(Cc2ccccc2)c(=O)[nH]1` (stereo not drawn) [Example 45], 970 nM.

Take `N#Cc1ccc(C2=CC[C@@H](c3[nH]c(=O)[nH]c(=O)c3Cc3ccccc3)CC2)c(Cl)c1` (single isomer, unassigned) [Example 40]: the Ki was 42 nM. This Ki lies about 23-fold lower than the previous one. `Cc1nn(C)cc1C1=CCC(c2[nH]c(=O)[nH]c(=O)c2Cc2ccccc2)CC1` (stereo not drawn) [Example 58]: the affinity corresponds to a Ki of 520 nM.

For the compound `CO[C@H]1CCCN(c2ncccc2C2=CCC(c3[nH]c(=O)[nH]c(=O)c3Cc3ccccc3)CC2)C1` (stereo partly drawn) [Example 49], the Ki stood at 280 nM. In the case of `O=c1[nH]c(C2CC=C(c3cccnc3N3CCCC3)CC2)c(Cc2ccccc2)c(=O)[nH]1` (stereo not drawn) [Example 44] it was 45 nM; in that of `O=c1[nH]c(C2CC=C(c3c(Cl)cccc3Cl)CC2)c(Cc2ccccc2)c(=O)[nH]1` (stereo not drawn) [Example 19], 32 nM.
